Experimental findings from patent publication US6500800B1, “Composition and method for causing photodynamic damage to target cells” (priority 1996, dated 2002) are described below.

This test concerns Human hepatoma PLC/PRF/5 cells. Put plainly: Photodynamic damage (PDD), survival rate of cells versus concentration after irradiation. In kind it is cell-based. The source says: A stands for (P10)-insulin-(chlorin e6); B stands for (β-galactosidase)-insulin-(chlorin e6); C stands for chlorin e6; […] Survival rate of human hepatoma PLC/PRF/5 cells plotted against concentration of compositions and chlorin e6 is depicted in FIGS. 2 and 3.

Read-outs that look alike come from different tables or passages of the source.

As to `C=Cc1c(C)c2cc3nc(c(CC(=O)O)c4[nH]c(cc5nc(cc1[nH]2)C(C)=C5CC)c(C)c4C(=O)O)[C@@H](CCC(=O)O)[C@@H]3C` [chlorin e6], the EC50 was determined as 11.5 µM (irradiation dose of 12.3 kJ/m^2, read-out: EC50 value (concentration of a semi-maximal effect)) and 0.35 µM (irradiation dose of 96 kJ/m^2, read-out: EC50 value).
